In ChEMBL document CHEMBL3046389, “Synthesis and biological evaluation of novel hydroquinone dimethyl ethers as potential anticancer and antimicrobial agents” (2013):

Key:
Assay type in all cases: functional
[1] = system: ACHN; test: Anticancer activity against Homo sapiens (human) ACHN cells after 48 hr by SRB assay
[2] = system: HCT-15; test: Anticancer activity against Homo sapiens (human) HCT15 cells after 48 hr by SRB assay; conditions: HCT-15, 48 h
[3] = system: RXF 393; test: Growth inhibition of Homo sapiens (human) RXF393 cells at 10 uM after 48 hr by SRB assay; conditions: RXF 393, 48 h, read-out: GI
[4] = system: SN12C; test: Anticancer activity against Homo sapiens (human) SN12C cells after 48 hr by SRB assay
[5] = system: SN12C; test: Growth inhibition of Homo sapiens (human) SN12C cells at 10 uM after 48 hr by SRB assay; conditions: read-out: GI
[6] = system: SNB-19; test: Growth inhibition of Homo sapiens (human) SNB19 cells at 10 uM after 48 hr by SRB assay; conditions: SNB-19, 48 h, read-out: GI
[7] = system: A498; test: Anticancer activity against Homo sapiens (human) A498 cells after 48 hr by SRB assay; conditions: A498, 48 h
[8] = system: EKVX; test: Anticancer activity against Homo sapiens (human) EKVX cells after 48 hr by SRB assay
[9] = system: K562; test: Growth inhibition of Homo sapiens (human) K562 cells at 10 uM after 48 hr by SRB assay; conditions: K562, 48 h, read-out: GI
[10] = system: A549; test: Anticancer activity against Homo sapiens (human) A549/ATCC cells after 48 hr by SRB assay; conditions: A549, 48 h
[11] = system: IGROV-1; test: Anticancer activity against Homo sapiens (human) IGROV1 cells after 48 hr by SRB assay; conditions: IGROV-1, 48 h
[12] = system: OVCAR-5; test: Anticancer activity against Homo sapiens (human) OVCAR5 cells after 48 hr by SRB assay; conditions: OVCAR-5, 48 h
[13] = system: MOLT-4; test: Growth inhibition of Homo sapiens (human) MOLT4 cells at 10 uM after 48 hr by SRB assay; conditions: MOLT-4, 48 h, read-out: GI
[14] = system: BT-549; test: Growth inhibition of Homo sapiens (human) BT549 cells at 10 uM after 48 hr by SRB assay; conditions: BT-549, 48 h, read-out: GI
[15] = system: MCF7; test: Anticancer activity against Homo sapiens (human) MCF7 cells after 48 hr by SRB assay; conditions: MCF7, 48 h
[16] = system: HOP-62; test: Growth inhibition of Homo sapiens (human) HOP62 cells at 10 uM after 48 hr by SRB assay; conditions: HOP-62, 48 h, read-out: GI
[17] = system: HL-60(TB); test: Anticancer activity against Homo sapiens (human) HL-60(TB) cells after 48 hr by SRB assay; conditions: HL-60, 48 h
[18] = system: SF-268; test: Anticancer activity against Homo sapiens (human) SF268 cells after 48 hr by SRB assay; conditions: SF-268, 48 h
[19] = system: CCRF-CEM; test: Anticancer activity against Homo sapiens (human) CCRF-CEM cells after 48 hr by SRB assay
[20] = system: HOP-62; test: Anticancer activity against Homo sapiens (human) HOP62 cells after 48 hr by SRB assay; conditions: HOP-62, 48 h
[21] = system: HT-29; test: Growth inhibition of Homo sapiens (human) HT-29 cells at 10 uM after 48 hr by SRB assay; conditions: HT-29, 48 h, read-out: GI
[22] = system: RXF 393; test: Anticancer activity against Homo sapiens (human) RXF393 cells after 48 hr by SRB assay; conditions: RXF 393, 48 h
[23] = system: NCI-H23; test: Anticancer activity against Homo sapiens (human) NCI-H23 cells after 48 hr by SRB assay; conditions: NCI-H23, 48 h
[24] = system: UACC-257; test: Anticancer activity against Homo sapiens (human) UACC257 cells after 48 hr by SRB assay; conditions: UACC-257, 48 h
[25] = system: SK-OV-3; test: Growth inhibition of Homo sapiens (human) SKOV3 cells at 10 uM after 48 hr by SRB assay; conditions: SK-OV-3, 48 h, read-out: GI
[26] = system: OVCAR-8; test: Anticancer activity against Homo sapiens (human) OVCAR8 cells after 48 hr by SRB assay; conditions: OVCAR-8, 48 h
[27] = system: A549; test: Growth inhibition of Homo sapiens (human) A549/ATCC cells at 10 uM after 48 hr by SRB assay; conditions: A549, 48 h, read-out: GI
[28] = system: OVCAR-4; test: Anticancer activity against Homo sapiens (human) OVCAR4 cells after 48 hr by SRB assay; conditions: OVCAR-4, 48 h
[29] = system: SR; test: Anticancer activity against Homo sapiens (human) SR cells after 48 hr by SRB assay
[30] = system: NCI-H322M; test: Anticancer activity against Homo sapiens (human) NCI-H322M cells after 48 hr by SRB assay
[31] = system: SNB-75; test: Anticancer activity against Homo sapiens (human) SNB75 cells after 48 hr by SRB assay; conditions: SNB-75, 48 h
[32] = system: LOX IMVI; test: Growth inhibition of Homo sapiens (human) LOXIMVI cells at 10 uM after 48 hr by SRB assay; conditions: read-out: GI
[33] = system: OVCAR-3; test: Anticancer activity against Homo sapiens (human) OVCAR3 cells after 48 hr by SRB assay; conditions: OVCAR-3, 48 h
[34] = system: ACHN; test: Growth inhibition of Homo sapiens (human) ACHN cells at 10 uM after 48 hr by SRB assay; conditions: read-out: GI
[35] = read-out: LC50 (the source's name)

## COc1ccc(OC)c(/C=C/C(=O)N/N=C/c2ccc(Cl)cc2)c1
[1]
  GI50: 1.49 µM
  TGI: > 100 µM
[1]; [35]
  CC50: > 100 µM
[2]
  GI50: 0.0835 µM
  TGI: > 100 µM
[2]; [35]
  CC50: > 100 µM
[3]
  inhibition of growth at 10 µM: 120%
[4]
  GI50: 0.982 µM
  LC50: > 100 µM
  TGI: > 100 µM
[5]
  inhibition of growth at 10 µM: 53.8%
[6]
  inhibition of growth at 10 µM: 77.4%
[7]
  GI50: 0.182 µM
  LC50: > 100 µM
  TGI: 27.5 µM
[8]
  GI50: 0.816 µM
  TGI: > 100 µM
[8]; [35]
  CC50: > 100 µM
[9]
  inhibition of growth at 10 µM: 86%
[10]
  GI50: 0.242 µM
  TGI: > 100 µM
[10]; [35]
  CC50: > 100 µM
[11]
  GI50: 0.187 µM
  LC50 (50% lethal concentration): > 100 µM
  TGI: 62.9 µM
[12]
  GI50: 10.9 µM
  TGI: > 100 µM
[12]; [35]
  CC50: > 100 µM
[13]
  inhibition of growth at 10 µM: 73.7%
[14]
  inhibition of growth at 10 µM: 36.5%
[15]
  GI50: 0.0743 µM
  TGI: 32.5 µM
[15]; [35]
  CC50: > 100 µM
[16]
  inhibition of growth at 10 µM: 62.1%
[17]
  GI50: 0.0785 µM
  TGI: 0.483 µM
[17]; [35]
  CC50: > 100 µM
[18]
  GI50: 0.718 µM
  TGI: > 100 µM
[18]; [35]
  CC50: > 100 µM
[19]
  GI50: 0.228 µM
  TGI: > 100 µM
[19]; [35]
  CC50: > 100 µM
[20]
  GI50: 0.162 µM
  TGI: 50.2 µM
[20]; [35]
  CC50: > 100 µM
[21]
  inhibition of growth at 10 µM: 93.5%
[22]
  GI50: 0.0469 µM
  LC50: > 100 µM
  TGI: 0.298 µM
[23]
  GI50: 0.148 µM
  TGI: 2.46 µM
[23]; [35]
  CC50: > 100 µM
[24]
  GI50: 36.5 µM
  LC50 (50% lethal concentration): > 100 µM
  TGI: > 100 µM
[25]
  inhibition of growth at 10 µM: 105%
[26]
  GI50: 0.35 µM
  LC50: > 100 µM
  TGI: > 100 µM
[27]
  inhibition of growth at 10 µM: 72.2%
[28]
  GI50: 0.439 µM
  TGI: > 100 µM
[28]; [35]
  CC50: > 100 µM
[29]
  GI50: 0.039 µM
  TGI: 16.4 µM
[29]; [35]
  CC50: > 100 µM
[30]
  GI50: 0.666 µM
  TGI: > 100 µM
[30]; [35]
  CC50: > 100 µM
[31]
  GI50: 0.098 µM
  TGI: 1.17 µM
[31]; [35]
  CC50: > 100 µM
[32]
  inhibition of growth at 10 µM: 63.3%
[33]
  GI50: 0.0335 µM
  LC50: > 100 µM
  TGI: 0.115 µM
[34]
  inhibition of growth at 10 µM: 51.6%
